Measured values reported in PubChem BioAssay AID180 (DTP/NCI, 2004).
Where “and” joins values, the source holds several entries; their conditions need not be identical. Equal values may be shown once.

System: BDF1 mice, Adenocarcinoma 755 s.c., tumor weight T/C
Experiment: NCI In Vivo Anticancer Drug Screen. Data for tumor model Adenocarcinoma 755 (subcutaneous) in B6D2F1 (BDF1) mice
Settings: endpoint: mean tumor weight, higher = larger tumour
Procedure, shortened: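 Values express treated (T) relative to vehicle-dosed control (C) animals, based on survival or tumour size measured after compound treatment of mice bearing a transplanted tumour.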

[1] = dose: 50.0 mg/kg/injection, schedule: Q01DX011 (ip), vehicle: carboxymethylcellulose (CMC)
[2] = dose: 50.0 mg/kg/injection, schedule: Q01DX011 (ip), vehicle: methylcellulose (MC)
[3] = dose: 100.0 mg/kg/injection, schedule: Q01DX011 (ip), vehicle: carboxymethylcellulose (CMC)
[4] = dose: 200.0 mg/kg/injection, schedule: Q01DX011 (ip), vehicle: carboxymethylcellulose (CMC)
[5] = dose: 800.0 mg/kg/injection, schedule: Q01DX011 (ip), vehicle: carboxymethylcellulose (CMC)
[6] = dose: 8.0 mg/kg/injection, schedule: Q01DX011 (ip), vehicle: carboxymethylcellulose (CMC)
[7] = dose: 30.0 mg/kg/injection, schedule: Q01DX011 (ip), vehicle: carboxymethylcellulose (CMC)
[8] = dose: 60.0 mg/kg/injection, schedule: Q01DX011 (ip), vehicle: carboxymethylcellulose (CMC)
[9] = dose: 31.25 mg/kg/injection, schedule: Q01DX011 (ip), vehicle: carboxymethylcellulose (CMC)
[10] = dose: 10.0 mg/kg/injection, schedule: Q01DX011 (ip), vehicle: saline
[11] = dose: 20.0 mg/kg/injection, schedule: Q01DX011 (ip), vehicle: saline
[12] = dose: 40.0 mg/kg/injection, schedule: Q01DX011 (ip), vehicle: saline
[13] = dose: 80.0 mg/kg/injection, schedule: Q01DX011 (ip), vehicle: saline

For `CCCCNc1nc(N)nc(Nc2ccc(Br)cc2)c1N=O`, which T/C [1] is on record?
Its T/C is 18 % of control.

And the T/C [2]?
Its T/C is 46 % of control.

What about the T/C [3] of the same molecule?
Its T/C is 30 % of control.

And the T/C (dose: 100.0 mg/kg/injection, schedule: Q01DX011 (ip), vehicle: methylcellulose (MC))?
The T/C was 44 % of control.

And the T/C [4]?
Its T/C is 53 % of control.

And the T/C (dose: 200.0 mg/kg/injection, schedule: Q01DX011 (ip), vehicle: methylcellulose (MC))?
Its T/C is 40 % of control.

And the T/C (dose: 400.0 mg/kg/injection, schedule: Q01DX011 (ip), vehicle: methylcellulose (MC))?
Its T/C is 47 % of control.

And the T/C [5]?
Its T/C is 23 % of control.

Which results are given for `Clc1ccc(N2CCN(CCCN3CCN(c4cccc(Cl)c4)CC3)CC2)cc1`?
T/C (dose: 5.0 mg/kg/injection, schedule: Q01DX011 (ip), vehicle: methylcellulose (MC)): 71 % of control; T/C [6]: 83 % of control; T/C (dose: 10.0 mg/kg/injection, schedule: Q01DX011 (ip), vehicle: methylcellulose (MC)): 62 % of control and 72 % of control; T/C (dose: 12.0 mg/kg/injection, schedule: Q01DX011 (ip), vehicle: carboxymethylcellulose (CMC)): 103 % of control; T/C (dose: 18.0 mg/kg/injection, schedule: Q01DX011 (ip), vehicle: carboxymethylcellulose (CMC)): 40 % of control; T/C (dose: 20.0 mg/kg/injection, schedule: Q01DX011 (ip), vehicle: methylcellulose (MC)): 65 % of control; T/C (dose: 27.0 mg/kg/injection, schedule: Q01DX011 (ip), vehicle: carboxymethylcellulose (CMC)): 46 % of control; T/C [7]: 47 % of control; T/C (dose: 40.0 mg/kg/injection, schedule: Q01DX011 (ip), vehicle: methylcellulose (MC)): 25 % of control; T/C [8]: 26 % of control

Which results are given for `CCCCNc1ncnc2c1cnn2C`?
T/C (dose: 4.0 mg/kg/injection, schedule: Q01DX011 (ip), vehicle: carboxymethylcellulose (CMC)): 96 % of control; T/C [6]: 84 % of control; T/C (dose: 16.0 mg/kg/injection, schedule: Q01DX011 (ip), vehicle: carboxymethylcellulose (CMC)): 52 % of control; T/C [9]: 30 % of control; T/C (dose: 32.0 mg/kg/injection, schedule: Q01DX011 (ip), vehicle: carboxymethylcellulose (CMC)): 20 % of control

Which results are given for `NS(=O)(=O)c1nc(S(=O)(=O)O)c2[nH]cnc2n1`?
T/C [7]: 95 % of control; T/C [8]: 76 % of control; T/C (dose: 120.0 mg/kg/injection, schedule: Q01DX011 (ip), vehicle: carboxymethylcellulose (CMC)): 86 % of control

How did the T/C [9] turn out when `Nc1nc(SCCc2ccccc2)c2[nH]cnc2n1` was run?
The T/C was 106 % of control.

What about the T/C [1] of the same molecule?
Its T/C is 97 % of control.

What about the T/C (dose: 62.5 mg/kg/injection, schedule: Q01DX011 (ip), vehicle: carboxymethylcellulose (CMC)) of the same molecule?
The T/C was 52 % of control.

What about the T/C [3] of the same molecule?
The T/C was 81 % of control.

What about the T/C (dose: 125.0 mg/kg/injection, schedule: Q01DX011 (ip), vehicle: carboxymethylcellulose (CMC)) of the same molecule?
The T/C was 19 % of control.

And the T/C [4]?
The T/C was 74 % of control.

And the T/C (dose: 250.0 mg/kg/injection, schedule: Q01DX011 (ip), vehicle: carboxymethylcellulose (CMC))?
The T/C was 6 % of control.

And the T/C (dose: 400.0 mg/kg/injection, schedule: Q01DX011 (ip), vehicle: carboxymethylcellulose (CMC))?
The T/C was 75 % of control.

What about the T/C [5] of the same molecule?
The T/C was 22 % of control.

`CCC(=O)N(CC)CC` was tested. Which T/C (dose: 250.0 mg/kg/injection, schedule: Q01DX011 (ip), vehicle: other) did it give?
The T/C was 100 % of control.

With `C=CCSc1ncnc2c1ncn2C1OC(CO)C(O)C1O` (centres undefined) as the molecule, how does the T/C (dose: 1.0 mg/kg/injection, schedule: Q01DX011 (ip), vehicle: saline) read?
Its T/C is 63 % of control.

And the T/C (dose: 1.6 mg/kg/injection, schedule: Q01DX011 (ip), vehicle: saline)?
The T/C was 82 % of control.

What about the T/C (dose: 2.0 mg/kg/injection, schedule: Q01DX011 (ip), vehicle: saline) of the same molecule?
Its T/C is 112 % of control.

What about the T/C (dose: 3.2 mg/kg/injection, schedule: Q01DX011 (ip), vehicle: saline) of the same molecule?
The T/C was 119 % of control.

And the T/C (dose: 4.0 mg/kg/injection, schedule: Q01DX011 (ip), vehicle: saline)?
Its T/C is 50 % of control.

What about the T/C (dose: 5.0 mg/kg/injection, schedule: Q01DX011 (ip), vehicle: saline) of the same molecule?
The T/C was 75 % of control.

What about the T/C (dose: 6.3 mg/kg/injection, schedule: Q01DX011 (ip), vehicle: saline) of the same molecule?
Its T/C is 40 % of control.

What about the T/C (dose: 7.0 mg/kg/injection, schedule: Q01DX011 (ip), vehicle: saline) of the same molecule?
The T/C was 16 % of control.

What about the T/C [10] of the same molecule?
The T/C was 38 % of control.

What about the T/C (dose: 12.5 mg/kg/injection, schedule: Q01DX011 (ip), vehicle: saline) of the same molecule?
The T/C was 42 % of control.

What about the T/C (dose: 13.0 mg/kg/injection, schedule: Q01DX011 (ip), vehicle: saline) of the same molecule?
Its T/C is 2 % of control.

What about the T/C [11] of the same molecule?
Its T/C is 8 % of control.

And the T/C (dose: 25.0 mg/kg/injection, schedule: Q01DX011 (ip), vehicle: saline)?
The T/C was 1 % of control and 19 % of control.

And the T/C [12]?
Its T/C is 1 % of control.

And the T/C (dose: 50.0 mg/kg/injection, schedule: Q01DX011 (ip), vehicle: saline)?
Its T/C is 18 % of control.

What about the T/C [13] of the same molecule?
Its T/C is 1 % of control.

What about the T/C (dose: 100.0 mg/kg/injection, schedule: Q01DX011 (ip), vehicle: saline) of the same molecule?
Its T/C is 11 % of control.

How did the T/C (dose: 25.0 mg/kg/injection, schedule: Q01DX011 (sc), vehicle: steriod suspending solution) turn out when `CC(=O)OCC(=O)C1(O)CCC2C3CCC4=CC(=O)CCC4(C)C34OC4CC21C` (centres undefined) was run?
Its T/C is 87 % of control.

What about the T/C (dose: 200.0 mg/kg/injection, schedule: Q01DX011 (sc), vehicle: steriod suspending solution) of the same molecule?
The T/C was 44 % of control.

What about the T/C (dose: 450.0 mg/kg/injection, schedule: Q01DX011 (sc), vehicle: steriod suspending solution) of the same molecule?
The T/C was 17 % of control.

For `NNC(=O)c1ccncc1`, which T/C (dose: 15.13 mg/kg/injection, schedule: Q01DX011 (ip), vehicle: carboxymethylcellulose (CMC)) is on record?
The T/C was 116 % of control.

And the T/C (dose: 17.62 mg/kg/injection, schedule: Q01DX011 (ip), vehicle: carboxymethylcellulose (CMC))?
The T/C was 160 % of control.

What about the T/C (dose: 19.25 mg/kg/injection, schedule: Q01DX011 (ip), vehicle: carboxymethylcellulose (CMC)) of the same molecule?
The T/C was 112 % of control.

And the T/C (dose: 30.25 mg/kg/injection, schedule: Q01DX011 (ip), vehicle: carboxymethylcellulose (CMC))?
The T/C was 109 % of control.

What about the T/C (dose: 38.5 mg/kg/injection, schedule: Q01DX011 (ip), vehicle: carboxymethylcellulose (CMC)) of the same molecule?
Its T/C is 78 % of control.

And the T/C (dose: 60.5 mg/kg/injection, schedule: Q01DX011 (ip), vehicle: carboxymethylcellulose (CMC))?
Its T/C is 121 % of control.

And the T/C (dose: 70.5 mg/kg/injection, schedule: Q01DX011 (ip), vehicle: carboxymethylcellulose (CMC))?
Its T/C is 178 % of control.

What about the T/C (dose: 77.0 mg/kg/injection, schedule: Q01DX011 (ip), vehicle: carboxymethylcellulose (CMC)) of the same molecule?
Its T/C is 122 % of control.

What about the T/C (dose: 121.0 mg/kg/injection, schedule: Q01DX011 (ip), vehicle: carboxymethylcellulose (CMC)) of the same molecule?
The T/C was 100 % of control.

What about the T/C (dose: 141.0 mg/kg/injection, schedule: Q01DX011 (ip), vehicle: carboxymethylcellulose (CMC)) of the same molecule?
The T/C was 202 % of control.

How did the T/C (dose: 15.0 mg/kg/injection, schedule: Q01DX011 (ip), vehicle: methylcellulose (MC)) turn out when `CSc1ncc(Br)c(Nc2ccc(Cl)c(Cl)c2)n1` was run?
The T/C was 57 % of control.

What about the T/C (dose: 31.0 mg/kg/injection, schedule: Q01DX011 (ip), vehicle: methylcellulose (MC)) of the same molecule?
Its T/C is 66 % of control.

What about the T/C (dose: 62.0 mg/kg/injection, schedule: Q01DX011 (ip), vehicle: methylcellulose (MC)) of the same molecule?
Its T/C is 78 % of control.

What about the T/C (dose: 125.0 mg/kg/injection, schedule: Q01DX011 (ip), vehicle: methylcellulose (MC)) of the same molecule?
The T/C was 67 % of control.

What about the T/C (dose: 250.0 mg/kg/injection, schedule: Q01DX011 (ip), vehicle: methylcellulose (MC)) of the same molecule?
The T/C was 62 % of control.

For `C[C@]12C=CC(=O)C=C1CC[C@@H]1[C@@H]2CC[C@]2(C)OC(=O)CC[C@@H]12`, which T/C (dose: 125.0 mg/kg/injection, schedule: Q01DX011 (sc), vehicle: steriod suspending solution) is on record?
Its T/C is 80 % of control.

What about the T/C (dose: 250.0 mg/kg/injection, schedule: Q01DX011 (sc), vehicle: steriod suspending solution) of the same molecule?
Its T/C is 77 % of control.

And the T/C (dose: 500.0 mg/kg/injection, schedule: Q01DX011 (sc), vehicle: steriod suspending solution)?
Its T/C is 109 % of control.

And the T/C (dose: 1000.0 mg/kg/injection, schedule: Q01DX011 (sc), vehicle: steriod suspending solution)?
The T/C was 75 % of control.

With `CCCNc1cc(=O)[nH]c(N)n1` as the molecule, how does the T/C (dose: 55.0 mg/kg/injection, schedule: Q01DX011 (ip), vehicle: methylcellulose (MC)) read?
Its T/C is 110 % of control.

What about the T/C (dose: 165.0 mg/kg/injection, schedule: Q01DX011 (ip), vehicle: methylcellulose (MC)) of the same molecule?
Its T/C is 41 % of control.

How did the T/C [10] turn out when `COc1cc(-c2ccc(Nc3ccccc3C(=O)O)c(OC)c2)ccc1N` was run?
Its T/C is 108 % of control.

And the T/C [11]?
The T/C was 36 % of control.

What about the T/C [12] of the same molecule?
Its T/C is 39 % of control.

What about the T/C [13] of the same molecule?
Its T/C is 17 % of control.

What does the source list for `Cc1ccc(CSc2nc(N)nc3c2ncn3C2OC(CO)C(O)C2O)cc1` (centres undefined)?
T/C (dose: 12.5 mg/kg/injection, schedule: Q01DX011 (ip), vehicle: methylcellulose (MC)): 57 % of control; T/C (dose: 25.0 mg/kg/injection, schedule: Q01DX011 (ip), vehicle: methylcellulose (MC)): 60 % of control; T/C [2]: 25 % of control and 41 % of control
